Data taken from patent US20210024649A1, “Methods and Compositions for Antibody and Antibody-loaded Dendritic Cell Mediated Therapy” (The Board of Trustees of the Leland Stanford Junior …, priority 2014, published 2021).

Test system: tumor-associated DC (TADC)
Experiment: TADC cultured with alloIgG-IC with or without stimuli
Format: cell-based, mouse
Details: stimulus added to TADC with alloIgG-IC
Method: BM mononuclear cells were negatively selected using a murine monocyte enrichment kit (Stem Cell Technologies, Vancouver Canada), and FSC^lo/SSC^lo/Gr1^hi/CD115^hi/MHCII^neg cells were sorted with a FACS Aria II (BD Biosciences). Monocytes were cultured for 4-5 days in the presence of 50 ng/ml GM-CSF (PeproTech) to generate DC. For TADC, tumors were digested in Hank's balanced salt solution (HBSS, Gibco) containing 5 mg/mL collagenase IV and 0.01 mg/mL DNase I (Sigma). Cells were applied on a Ficoll gradient and magnetically enriched using CD11b^+ selection kits (StemCells) and Gr1^neg/CD11c^+/MHCII^+ cells were sorted by FACS. In some experiments TADC were activated with 50 ng/mL TNFα (PeproTech) and 500 ng/mL CD40L (PeproTech) recombinant mouse proteins.
To resolve this apparent discrepancy, tumor-associated DC (TADC) (FIG. 7a) were obtained and cultured these cells with tumor lysates or alloIgG-IC. […] Since the expression pattern of Fcγ receptors on TADC was similar to that of BMDC, and several immune stimuli are known to induce MAPK activation in DC, the effect of such stimuli on the response of TADC to allogG-IC was tested.

polyinosinic:polycytidylic acid [poly I:C]
activation of TADC and uptake of alloIgG-IC: enabled activation of TADC as well as uptake of alloIgG-IC
